Experimental data published in PubChem BioAssay AID248 (DTP/NCI, 2004).
Where “and” joins values, the source holds several entries; their conditions need not be identical. Identical values can stand only once. Toxic doses and inconclusive results are not listed. Cut-off read from the data, not from the text of the source: active = T/C of 150% or more; inactive = T/C below 125%.

Tested on: L1210 leukemia ip in BDF1 mice, survival T/C
Test: NCI In Vivo Anticancer Drug Screen. Data for tumor model L1210 Leukemia (intraperitoneal) in B6D2F1 (BDF1) mice
Details: endpoint: mean survival time, higher = longer survival
Outline: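 Ratio derived from survival: compound-dosed mice over vehicle-dosed mice, all bearing a transplantable tumor.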

[1] = dose: 100.0 mg/kg/injection, schedule: Q04DX003 (ip), vehicle: saline
[2] = dose: 200.0 mg/kg/injection, schedule: Q04DX003 (ip), vehicle: saline
[3] = dose: 50.0 mg/kg/injection, schedule: Q01DX009 (ip), vehicle: saline with Tween-80
[4] = dose: 100.0 mg/kg/injection, schedule: Q01DX009 (ip), vehicle: saline with Tween-80
[5] = dose: 200.0 mg/kg/injection, schedule: Q01DX009 (ip), vehicle: saline with Tween-80
[6] = dose: 100.0 mg/kg/injection, schedule: Q01DX009 (ip), vehicle: Klucel (hydroxypropylcellulose) (HPC)
[7] = dose: 200.0 mg/kg/injection, schedule: Q01DX009 (ip), vehicle: Klucel (hydroxypropylcellulose) (HPC)
[8] = dose: 400.0 mg/kg/injection, schedule: Q01DX009 (ip), vehicle: Klucel (hydroxypropylcellulose) (HPC)
[9] = dose: 75.0 mg/kg/injection, schedule: Q01DX001 (ip), vehicle: carboxymethylcellulose (CMC)
[10] = dose: 100.0 mg/kg/injection, schedule: Q04DX002 (ip), vehicle: saline with Tween-80
[11] = dose: 200.0 mg/kg/injection, schedule: Q04DX002 (ip), vehicle: saline with Tween-80
[12] = dose: 400.0 mg/kg/injection, schedule: Q04DX002 (ip), vehicle: saline with Tween-80
[13] = dose: 100.0 mg/kg/injection, schedule: Q04DX003 (ip), vehicle: saline with Tween-80
[14] = dose: 400.0 mg/kg/injection, schedule: Q01DX009 (ip), vehicle: saline with Tween-80

Measured: T/C

Cc1ncc2c(n1)NC(c1ccc(Cl)cc1)=NC2
inactive: dose: 75.0 mg/kg/injection, schedule: Q01DX001 (ip), vehicle: other 91 % of control | dose: 150.0 mg/kg/injection, schedule: Q01DX001 (ip), vehicle: other 100 % of control | dose: 300.0 mg/kg/injection, schedule: Q01DX001 (ip), vehicle: other 96 % of control

COP(=O)(OC)OC1C(=O)NC(=O)NC1=O
inactive: dose: 50.0 mg/kg/injection, schedule: Q01DX001 (ip), vehicle: carboxymethylcellulose (CMC) 98 % of control | dose: 100.0 mg/kg/injection, schedule: Q01DX001 (ip), vehicle: carboxymethylcellulose (CMC) 93 % of control | dose: 200.0 mg/kg/injection, schedule: Q01DX001 (ip), vehicle: carboxymethylcellulose (CMC) 96 % of control | dose: 400.0 mg/kg/injection, schedule: Q01DX001 (ip), vehicle: carboxymethylcellulose (CMC) 96 % of control

COc1ccc(/C=C/C(=O)c2ccc3c(c2)OCO3)cc1O
inactive: dose: 50.0 mg/kg/injection, schedule: Q01DX009 (ip), vehicle: saline 100 % of control | dose: 100.0 mg/kg/injection, schedule: Q01DX009 (ip), vehicle: saline 93 % of control | [1] 93 % of control | dose: 200.0 mg/kg/injection, schedule: Q01DX009 (ip), vehicle: saline 100 % of control | [2] 97 % of control | dose: 300.0 mg/kg/injection, schedule: Q01DX009 (ip), vehicle: saline 120 % of control | dose: 400.0 mg/kg/injection, schedule: Q04DX003 (ip), vehicle: saline 87 % of control

CC(C)C(Cl)c1ccccc1 (configuration not stated)
inactive: [3] 87 % of control | [4] 91 % of control | [5] 87 % of control

CCCCOCCOCCOc1ccc(C(=O)O)cc1
inactive: dose: 50.0 mg/kg/injection, schedule: Q01DX009 (ip), vehicle: acetone 102 % of control | dose: 100.0 mg/kg/injection, schedule: Q01DX009 (ip), vehicle: acetone 97 % of control | [1] 94 % of control | dose: 200.0 mg/kg/injection, schedule: Q01DX009 (ip), vehicle: acetone 102 % of control | [2] 94 % of control

O=C(NCc1ccc(Cl)c(Cl)c1)Nc1ccccc1F
inactive: [6] 101 % of control | dose: 100.0 mg/kg/injection, schedule: Q04DX002 (ip), vehicle: Klucel (hydroxypropylcellulose) (HPC) 102 % of control | [7] 104 % of control | dose: 200.0 mg/kg/injection, schedule: Q04DX002 (ip), vehicle: Klucel (hydroxypropylcellulose) (HPC) 105 % of control | [8] 101 % of control | dose: 400.0 mg/kg/injection, schedule: Q04DX002 (ip), vehicle: Klucel (hydroxypropylcellulose) (HPC) 97 % of control

O=S(=O)([O-])Sn1c(-c2ccccc2)c[n+]2ccccc12
inactive: dose: 5.0 mg/kg/injection, schedule: Q01DX009 (ip), vehicle: saline 96 % of control | dose: 10.0 mg/kg/injection, schedule: Q01DX001 (ip), vehicle: saline 102 % of control | dose: 10.0 mg/kg/injection, schedule: Q01DX009 (ip), vehicle: saline 101 % of control | dose: 10.0 mg/kg/injection, schedule: Q04DX003 (ip), vehicle: saline 100 % of control | dose: 20.0 mg/kg/injection, schedule: Q01DX001 (ip), vehicle: saline 100 % of control | dose: 20.0 mg/kg/injection, schedule: Q01DX009 (ip), vehicle: saline 120 % of control | dose: 20.0 mg/kg/injection, schedule: Q04DX003 (ip), vehicle: saline 97 % of control | dose: 40.0 mg/kg/injection, schedule: Q01DX001 (ip), vehicle: saline 96 % of control | dose: 40.0 mg/kg/injection, schedule: Q04DX003 (ip), vehicle: saline 106 % of control

CCC(COC(=O)c1ccc(N)cc1)NC(CC(C)C)CC(C)C (configuration not stated)
inactive: [9] 89 % of control | dose: 300.0 mg/kg/injection, schedule: Q01DX001 (ip), vehicle: carboxymethylcellulose (CMC) 91 % of control

CCCCOP(=O)(Nc1ccc(Cl)cc1)OCCCC
inactive: [10] 101 % of control | [11] 94 % of control | [12] 105 % of control

CCCCCCCCCCCCNCc1ccc(O)cc1
inactive: dose: 25.0 mg/kg/injection, schedule: Q01DX001 (ip), vehicle: other 95 % of control | dose: 25.0 mg/kg/injection, schedule: Q01DX009 (ip), vehicle: saline with Tween-80 96 % of control | dose: 25.0 mg/kg/injection, schedule: Q04DX003 (ip), vehicle: saline with Tween-80 98 % of control | dose: 50.0 mg/kg/injection, schedule: Q01DX001 (ip), vehicle: other 93 % of control | [3] 93 % of control | dose: 50.0 mg/kg/injection, schedule: Q04DX003 (ip), vehicle: saline with Tween-80 101 % of control | dose: 100.0 mg/kg/injection, schedule: Q01DX001 (ip), vehicle: other 93 % of control and 90 % of control | [4] 88 % of control | [13] 102 % of control

CC1CCC/C(=N/Nc2ccc3ccccc3n2)C1 (configuration not stated)
inactive: dose: 75.0 mg/kg/injection, schedule: Q01DX001 (ip), vehicle: saline 113 % of control

O=C(Nc1ccccc1)OC(C[N+](=O)[O-])C(Cl)(Cl)Cl (configuration not stated)
inactive: [9] 98 % of control

CCOC(=O)CNC(=O)Nc1cccc(F)c1
inactive: [4] 103 % of control | [5] 102 % of control | [14] 96 % of control

C[S+](C)(=O)/C=C(\[O-])Nc1ccccc1
inactive: [6] 101 % of control | dose: 100.0 mg/kg/injection, schedule: Q04DX003 (ip), vehicle: Klucel (hydroxypropylcellulose) (HPC) 101 % of control | [7] 92 % of control | dose: 200.0 mg/kg/injection, schedule: Q04DX003 (ip), vehicle: Klucel (hydroxypropylcellulose) (HPC) 97 % of control | [8] 97 % of control | dose: 400.0 mg/kg/injection, schedule: Q04DX003 (ip), vehicle: Klucel (hydroxypropylcellulose) (HPC) 103 % of control

COc1ccc(C(=O)NC(=S)Nc2ccc(O)cc2)cc1
inactive: [4] 97 % of control and 104 % of control | [10] 98 % of control | [13] 99 % of control | [5] 108 % of control and 109 % of control | [11] 104 % of control | dose: 200.0 mg/kg/injection, schedule: Q04DX003 (ip), vehicle: saline with Tween-80 94 % of control | [14] 98 % of control and 101 % of control | [12] 95 % of control | dose: 400.0 mg/kg/injection, schedule: Q04DX003 (ip), vehicle: saline with Tween-80 96 % of control

CCCCCCCCCCOS(C)=O (configuration not stated)
inactive: [3] 100 % of control | [4] 92 % of control | [5] 88 % of control

CC(=O)OCC1=C(C(=O)O)N2C(=O)C(NC(=O)CSc3ccncc3)C2SC1 (configuration not stated)
inactive: dose: 100.0 mg/kg/injection, schedule: Q04DX002 (ip), vehicle: saline 103 % of control | dose: 200.0 mg/kg/injection, schedule: Q04DX002 (ip), vehicle: saline 114 % of control | dose: 400.0 mg/kg/injection, schedule: Q04DX002 (ip), vehicle: saline 107 % of control
